This is an account of results in patent US10167299B2, “1-(3-aminopropyl) substituted cyclic amine compounds, preparation method therefor, and pharmaceutical compositions and uses thereof” (SHANGHAI INSTITUTE OF MATERIA MEDICA, CHINESE ACADEMY OF …, priority 2013, dated 2019).

The test system of series [1] is Salmonella typhimurium strain TA98. Put plainly: Bacterial reverse mutation assay TA98 (-S9). Type of series: cell-based. The conditions noted are these: TA98, -S9, positive control 20 μg/dish. As to the method: (§1) The mutagenic effects of compounds 18 and 22 of the present invention on Salmonella typhimurium strains TA98 and TA100 in non-metabolic activation (-S9) condition were determined. Two strains, TA98 and TA100 were chosen in bacterial reverse mutation assay for compounds 18 and 22. 9 doses containing […], negative and positive controls were set in experiments. 3 dishes were used for each dose. The experiment was carried out under -S9 condition.

The target of series [2] is CCR5 (Homo sapiens (Human), UniProt P51681). Briefly: Calcium flux inhibition experiment. Type of series: cell-based. The conditions noted are these: for pIC50: HEK293/CCR5-Gα16 cell line, calcium flux, read-out: CCR5 IC50; for calcium influx inhibition effect in words, versus positive control compounds: conclusion from Table 1.
Chain of CCR5 (P51681 whole entry): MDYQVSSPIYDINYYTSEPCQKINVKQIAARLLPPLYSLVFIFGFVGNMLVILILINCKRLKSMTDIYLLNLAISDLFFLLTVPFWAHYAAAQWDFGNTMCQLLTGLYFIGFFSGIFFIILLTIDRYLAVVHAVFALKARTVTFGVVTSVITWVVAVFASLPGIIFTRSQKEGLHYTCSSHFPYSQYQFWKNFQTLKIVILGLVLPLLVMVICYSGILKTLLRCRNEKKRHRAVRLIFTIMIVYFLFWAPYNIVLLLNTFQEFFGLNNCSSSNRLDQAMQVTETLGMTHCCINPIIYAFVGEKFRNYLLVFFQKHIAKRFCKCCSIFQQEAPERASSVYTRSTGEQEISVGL
For series [3], the system named is CCR5 protein. Put plainly: Thermal stability of protein test (CPM-assay). Type of series: binding. The settings on record: for Tm (° C.): thermal stability of CCR5 protein with compound, CPM dye. An excerpt: Experimental theory: many cysteines are present in CCR5 protein sequence. Cysteines located in loop region form disulfide bonds to stabilize the tertiary structure of the protein. Some free cysteines in reduced state are located in the transmembrane region. Under excitation by incident light of 387 nm, the combination of free sulfhydryl and fluorescent dye CPM can emit excitation light of 436 nm. […] The free sulfhydryls originally located in the transmembrane region expose and combine with the fluorescent dye. And then the detector will detect changes in signal enhancement. Therefore, the thermal stability of membrane proteins can be determined according to the temperature (Tm) at the midpoint of changes in signal intensity.
Experimental steps: Upon preliminary purification, the obtained protein solution was transferred into a small concentration tube (100 kd, 500 ul) for concentration (1000 rcf, 12 min, 4° C.). After centrifugation, the concentration tube was taken out and flicked to prevent protein coagulation due to high local concentration. The final concentrated volume was about 50 μl. 117 μl of purified solution (volume is suitable to make the total volume up to 120 μl), 1 μl fluorescent dye cpm (in-house prepared) and 2 μl of concentrated protein solution (the amount of added protein is 3-5 μg according to the calculated concentration of the protein solution and the concentrated volume) were added to 2 ml Ependorf tube and incubated at room temperature for 20 min. And then the mixture was added to the cuvette (Qwan) and put in the testing equipment Cary, wherein the surface of the frosted glass faced out. The temperature was set in the range of 4-90° C. with 1° C. increase per minute and the program was run. Tm value can be obtained by processing the data and graph with a mapping software and can be used to compare the difference of protein thermal stability under different conditions.

Series [4] in a line: Cytotoxicity (CC50) in TZM-bl cells. The conditions noted are these: human. Type of series: cell-based.
Series [5] concerns the target hERG (Homo sapiens (Human), UniProt Q12809).
Procedure: CHO-hERG cells which have been incubated overnight were added with sample buffer and incubated for 90 minutes at room temperature in darkness.
The sample buffer was removed and assay buffer was added.
The compound is added to the cell plate and incubated for 20 minutes in darkness.
Cell plate was placed into FDSS. The fluorescence signal was recorded every second for 10 seconds. Exciting buffer was added to the cells at the 10th second and the fluorescence signal was recorded every second for 180 seconds
Series [6] concerns HIV-1SF162 virus strain. Put plainly: Inhibition activity on TZM-bl cells infected with HIV-1SF162. The settings on record: for EC50: Human immunodeficiency virus 1, TZM-bl; for therapeutic index (TI): TZM-bl cells infected with HIV-1SF162.
The subject of series [7] is Salmonella typhimurium strain TA100. Put plainly: Bacterial reverse mutation assay TA100 (-S9). Type of series: cell-based. The settings on record: TA100, -S9, positive control 1300 μg/dish. The method, then: as §1
[8] abbreviates: TZM-bl cells (Table 3), read-out: CC50.

pIC50: −log10 of the molar value. Values after ≈ are worked out from the molar mass of the structure shown. Like-named read-outs stand apart in the source and are kept apart here. A value given as a limit tells only on which side of the number the result lay.

Chain of hERG (Q12809 whole entry): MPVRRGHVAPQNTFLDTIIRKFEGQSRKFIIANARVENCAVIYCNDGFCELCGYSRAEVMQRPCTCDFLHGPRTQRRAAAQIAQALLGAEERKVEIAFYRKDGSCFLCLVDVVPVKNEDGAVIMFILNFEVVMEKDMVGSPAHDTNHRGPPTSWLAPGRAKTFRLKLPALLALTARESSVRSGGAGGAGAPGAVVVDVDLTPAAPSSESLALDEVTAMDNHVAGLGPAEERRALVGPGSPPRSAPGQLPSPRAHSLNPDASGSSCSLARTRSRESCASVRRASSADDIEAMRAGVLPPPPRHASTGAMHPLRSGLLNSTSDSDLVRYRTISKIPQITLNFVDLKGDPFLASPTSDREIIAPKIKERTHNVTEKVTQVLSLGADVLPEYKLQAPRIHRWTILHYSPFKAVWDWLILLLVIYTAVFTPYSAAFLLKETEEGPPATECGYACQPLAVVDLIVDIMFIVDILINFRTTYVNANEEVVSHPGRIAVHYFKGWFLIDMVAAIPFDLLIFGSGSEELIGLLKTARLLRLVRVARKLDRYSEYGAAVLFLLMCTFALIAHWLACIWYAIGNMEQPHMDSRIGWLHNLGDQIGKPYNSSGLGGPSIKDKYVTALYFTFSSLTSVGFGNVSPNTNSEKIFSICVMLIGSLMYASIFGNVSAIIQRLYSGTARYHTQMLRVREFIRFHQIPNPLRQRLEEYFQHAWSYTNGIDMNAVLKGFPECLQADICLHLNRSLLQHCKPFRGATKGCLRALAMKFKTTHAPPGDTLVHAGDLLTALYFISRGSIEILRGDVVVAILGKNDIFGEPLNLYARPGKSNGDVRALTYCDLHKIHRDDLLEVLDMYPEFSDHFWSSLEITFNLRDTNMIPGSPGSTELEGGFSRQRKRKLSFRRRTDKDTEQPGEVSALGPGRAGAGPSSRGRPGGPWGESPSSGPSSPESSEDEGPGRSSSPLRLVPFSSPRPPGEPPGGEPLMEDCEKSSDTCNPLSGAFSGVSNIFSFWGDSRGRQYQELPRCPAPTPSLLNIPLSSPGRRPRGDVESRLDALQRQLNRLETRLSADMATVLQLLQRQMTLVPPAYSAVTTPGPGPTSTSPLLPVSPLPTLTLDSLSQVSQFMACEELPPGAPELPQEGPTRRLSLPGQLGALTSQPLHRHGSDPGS

As to `O=[N+]([O-])c1ccc2c(c1)Cc1ccccc1-2` [2-Nitroflucrene, reference compound], the “number of revertant colonies (Mean ± SD)” value in series [1] was 999 ± 145.2.

With `Cc1nnc(C(C)C)n1C1CC2CCC(C1)N2CC[C@H](NC(=O)C1CCCCC1)c1cccnc1` (stereo partly drawn) [Compound 8, N-[(1S)-3-[exo-3-(3-isopropyl-5-methyl-4H-1,2,4-triazol-4-yl)-8-azabicyclo[3.2.1]octane-8-yl]-1-(pyridin-3-yl)propyl]cyclohexane-1-carboxamide], the pIC50 in series [2] is 7.66. In addition, the “Tm (° C.)” value in series [3] was 60.61 °C. The compound also had a CC50 in series [4] of over 100 µg/mL. The “hERG inhibition activity in words, versus positive control compounds” value in series [5] was “better that those of positive control compounds”. Further, in series [6], the EC50 was 2.69 µg/mL (≈ 5.62 µM) and the “therapeutic index (TI)” value was over 37.17.

With `CC(=O)N[C@@H](CCN1C2CCC1CC(n1c(C)nnc1C(C)C)C2)c1cccs1` (stereo partly drawn) [Compound 12, N-[(1S)-3-[exo-3-(3-isopropyl-5-methyl-4H-1,2,4-triazol-4-yl)-8-azabicyclo[3.2.1]octane-8-yl]-1-(thiophen-2-yl)propyl]acetamide], the “hERG inhibition activity in words, versus positive control compounds” value in series [5] was “better that those of positive control compounds”.

With `Cc1nnc(C(C)C)n1C1CCN(CC[C@H](NC(=O)C2CCC(F)(F)CC2)c2cccs2)CC1` [Compound 13, 4,4-difluoro-N-[(1S)-3-[4-(3-isopropyl-5-methyl-4H-1,2,4-triazol-4-yl)-piperidin-1-yl]-1-(thiophen-2-yl)propyl]cyclohexane-1-carboxamide], in series [2], the pIC50 was 8.47 and the “calcium influx inhibition effect in words, versus positive control compounds” value is reported as “better than the positive control compounds”. Also, in series [3], the “Tm (° C.)” value is 65.32 °C. Besides, the CC50 in series [4] (setting [8]) was over 100 µg/mL. In series [6], a half-maximal response (EC50) required 0.183 µg/mL (≈ 0.371 µM) and the “therapeutic index (TI)” value is listed as over 1093.14.

As for `Cc1nnc(C(C)C)n1C1CCN(CC[C@H](NC(=O)C2CCCCC2)c2cccs2)CC1` [Compound 15, N-[(1S)-3-[4-(3-isopropyl-5-methyl-4H-1,2,4-triazol-4-yl)-piperidin-1-yl]-1-(thiophen-2-yl)propyl]cyclohexane-1-carboxamide], in series [2], the negative-log IC50 (pIC50) is 8.04 and the “calcium influx inhibition effect in words, versus positive control compounds” value was “comparable to the positive control compounds”. The “Tm (° C.)” value in series [3] turned out to be 64.30 °C. Also, the CC50 in series [4] (setting [8]) was over 200 µg/mL. In series [6], the response was half-maximal at 0.316 µg/mL (≈ 0.69 µM) (EC50) and the “therapeutic index (TI)” value is listed as over 632.87.

Turning to `CCC1CCC(C(=O)N[C@@H](CCN2C3CCC2CC(n2c(C)nnc2C(C)C)C3)c2cccs2)CC1` (stereo partly drawn) [Compound 19], the pIC50 in series [2] was 7.67. Besides, the “Tm (° C.)” value in series [3] came to 69.20 °C. Besides, in series [4], the 50% cytotoxic concentration (CC50) is 85.7 µg/mL (≈ 168 µM). Also, in series [6], the midpoint of the response, the EC50, lay at 0.00959 µg/mL (≈ 0.0187 µM) and the “therapeutic index (TI)” value came to 8940.56.

Take `Cc1nnc(C(C)C)n1C1CCN(CC[C@H](NC(=O)C2CCC(F)(F)CC2)c2ccsc2)CC1` [Compound 21, 4,4-difluoro-N-[(1S)-3-[4-(3-isopropyl-5-methyl-4H-1,2,4-triazol-4-yl)-piperidin-1-yl]-1-(thiophen-3-yl)propyl]cyclohexane-1-carboxamide]: in series [2], the pIC50 was 7.92 and the “calcium influx inhibition effect in words, versus positive control compounds” value is given as “comparable to the positive control compounds”. The “Tm (° C.)” value in series [3] amounted to 64.68 °C. In series [4] (setting [8]), the CC50 was over 200 µg/mL. In addition, in series [6], the concentration for a half-maximal effect (EC50) stood at 0.15 µg/mL (≈ 0.304 µM) and the “therapeutic index (TI)” value was over 1333.96.

Turning to `Cc1nnc(C(C)C)n1C1CCN(CC[C@H](NC(=O)C2CCCCC2)c2ccsc2)CC1` [Compound 23, N-[(1S)-3-[4-(3-isopropyl-5-methyl-4H-1,2,4-triazol-4-yl)-piperidin-1-yl]-1-(thiophen-3-yl)propyl]cyclohexane-1-carboxamide], the pIC50 in series [2] was 7.56. The “Tm (° C.)” value in series [3] came out at 63.90 °C. In addition, in series [4] (setting [8]), the CC50 is over 200 µg/mL. Besides, in series [6], the concentration for a half-maximal effect (EC50) was found to be 0.06 µg/mL (≈ 0.131 µM) and the “therapeutic index (TI)” value is on record as over 3332.78.

For `Cc1nnc(C(C)C)n1C1CCN(CC[C@H](NC(=O)C2CCCC2)c2ccsc2)CC1` [Compound 25, N-[(1S)-3-[4-(3-isopropyl-5-methyl-4H-1,2,4-triazol-4-yl)-piperidin-1-yl]-1-(thiophen-3-yl)propyl]cyclopentane-1-carboxamide], the pIC50 in series [2] is 7.42. Further, in series [3], the “Tm (° C.)” value was 62.31 °C. In series [4] (setting [8]), the CC50 is over 200 µg/mL. In addition, in series [6], the 50% effective concentration (EC50) was determined as 0.168 µg/mL (≈ 0.379 µM) and the “therapeutic index (TI)” value is reported as over 1190.41.

Regarding `Cc1nnc(C(C)C)n1C1CC2CCC(C1)N2CC[C@H](NC(=O)C1CCCC1)c1ccsc1` (stereo partly drawn) [Compound 26, N-[(1S)-3-[exo-3(3-isopropyl-5-methyl-4H-1,2,4-triazol-4-yl)-8-azabicyclo[3.2.1]octane-8-yl]-1-(thiophen-3-yl)propyl]cyclopentane-1-carboxamide], in series [2], the negative-log IC50 (pIC50) is 8.30 and the “calcium influx inhibition effect in words, versus positive control compounds” value is recorded as “better than the positive control compounds”. The “protein stability effect in words, versus positive control compound” value in series [3] (conclusion from Table 2) is “comparable with the positive control compound”. The “Tm (° C.)” value in series [3] was found to be 71.02 °C. In addition, in series [4], the CC50 was over 200 µg/mL. In series [6], the EC50 is 0.00558 µg/mL (≈ 0.0119 µM) and the “therapeutic index (TI)” value is given as over 35842.29. Also, the “cytotoxicity in vitro and therapeutic index in words, versus positive control compound” value in series [6] (TZM-bl cells infected with HIV-1SF162, conclusion from Table 3) is listed as “better than positive control compound”.

Take `Cc1sc([C@H](CCN2C3CCC2CC(n2c(C)nnc2C(C)C)C3)NC(=O)C2CCC(F)(F)CC2)c(C)c1C` (stereo partly drawn) [Compound 103, 4,4-difluoro-N-[(1S)-3-[exo-3-(3-isopropyl-5-methyl-4H-1,2,4-triazol-4-yl)-8-azabicyclo[3.2.1]octane-8-yl]-1-(3,4,5-trimethylthiophen-2-yl)propyl]cyclohexane-1-carboxamide]: in series [5], the pIC50 is 5.46.

On to `COS(C)(=O)=O` [Methyl methanesulfonate, reference compound], for which the “number of revertant colonies (Mean ± SD)” value in series [7] was 1231 ± 146.1.
